Laboratory results taken from US9409908B2 (priority 2012, dated 2016).
Structures can show the parent of a compound that is named as a salt. Where two headings read alike, the source gives them in different places.

Molecular target: purified human Factor XIa (Homo sapiens (Human), UniProt P03951)
Assay: biochemical
Format: biochemical
Details: read-out: Factor XIa Ki

purified human Factor XIa, sequence (P03951 whole entry, looked up): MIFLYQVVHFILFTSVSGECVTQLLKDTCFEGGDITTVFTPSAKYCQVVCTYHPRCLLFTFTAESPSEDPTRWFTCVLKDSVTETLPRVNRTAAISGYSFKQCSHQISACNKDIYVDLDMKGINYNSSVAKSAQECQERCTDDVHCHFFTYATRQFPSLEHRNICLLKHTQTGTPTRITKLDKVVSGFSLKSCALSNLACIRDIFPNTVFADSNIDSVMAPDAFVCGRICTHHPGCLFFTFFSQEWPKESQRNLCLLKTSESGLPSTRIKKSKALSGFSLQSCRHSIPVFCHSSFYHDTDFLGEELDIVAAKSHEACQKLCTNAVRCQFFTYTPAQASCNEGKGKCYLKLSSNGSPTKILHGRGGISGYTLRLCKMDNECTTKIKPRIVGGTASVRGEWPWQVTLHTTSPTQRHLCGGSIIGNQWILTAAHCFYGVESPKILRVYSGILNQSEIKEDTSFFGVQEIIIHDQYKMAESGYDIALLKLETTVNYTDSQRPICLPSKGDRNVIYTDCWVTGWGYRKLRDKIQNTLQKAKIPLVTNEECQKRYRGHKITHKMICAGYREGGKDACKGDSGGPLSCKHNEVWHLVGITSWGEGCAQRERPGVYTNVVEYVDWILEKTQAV
purified human Factor XIa, sequence (P03951 whole entry partner, looked up): as the sequence (P03951 whole entry, looked up) above

CC1CCCC(N2CCC(c3c(F)ccc(Cl)c3F)=CC2=O)c2cc(ccn2)-c2ccc(C#N)cc2NC1=O (stereo in doubt) [Example 23, (14R)-14-[4-(3-Chloro-2,6-difluorophenyl)-6-oxo-1,2,3,6-tetrahydropyridin-1-yl]-10-methyl-9-oxo-8,16-diazatricyclo[13.3.1.0^2,7]nonadeca-1(18),2,4,6,15(19),16-hexaene-5-carbonitrile, TFA salt]
Ki (TFA salt): 93.2 nM

C[C@@H]1CCC[C@H](N2CCC(c3c(F)ccc(Cl)c3F)=CC2=O)c2cc(ccn2)-c2ccc(N)cc2NC1=O [Example 12, (10R,14S)-5-Amino-14-[4-(3-chloro-2,6-difluorophenyl)-6-oxo-1,2,3,6-tetrahydropyridin-1-yl]-10-methyl-8,16-diazatricyclo[13.3.1.0^2,7]nonadeca-1(19),2,4,6,15,17-hexaen-9-one]
Ki: 1.5 nM

C[C@@H]1CCC[C@H](N2CCC(c3c(F)ccc(Cl)c3F)=CC2=O)c2cc(ccn2)-c2ccc(F)cc2NC1=O [Example 14, (10R,14S)-14-[4-(3-Chloro-2,6-difluorophenyl)-6-oxo-1,2,3,6-tetrahydropyridin-1-yl]-5-fluoro-10-methyl-8,16-diazatricyclo[13.3.1.0^2,7]nonadeca-1(19),2,4,6,15,17-hexaen-9-one, TFA salt]
Ki: 34.8 nM

C[C@@H]1CCC[C@H](N2CCC(c3c(F)ccc(Cl)c3F)=CC2=O)c2cc(ccn2)-c2ccc(O)cc2NC1=O [Example 18, (10R,14S)-14-[4-(3-Chloro-2,6-difluorophenyl)-6-oxo-1,2,3,6-tetrahydropyridin-1-yl]-5-hydroxy-10-methyl-8,16-diazatricyclo[13.3.1.0^2,7]nonadeca-1(19),2,4,6,15,17-hexaen-9-one, TFA salt]
Ki: 1.25 nM

CC(=O)c1ccc(Cl)c(F)c1C1=CC(=O)N([C@H]2CCCC(C)C(=O)Nc3cc(C(N)=O)ccc3-c3ccnc2c3)CC1 (stereo partly drawn) [Example 34, (14S)-14-[4-(6-Acetyl-3-chloro-2-fluorophenyl)-6-oxo-1,2,3,6-tetrahydropyridin-1-yl]-10-methyl-9-oxo-8,16-diazatricyclo[13.3.1.0^2,7]nonadeca-1(19),2,4,6,15,17-hexaene-5-carboxamide, TFA salt]
Ki: 4.17 nM

CC1CCC[C@H](N2CCC(c3cccc(Cl)c3F)=CC2=O)c2cc(ccn2)-c2ccc(C(N)=O)cc2NC1=O (stereo partly drawn) [Example 35, (14S)-14-[4-(3-Chloro-2-fluorophenyl)-6-oxo-1,2,3,6-tetrahydropyridin-1-yl]-10-methyl-9-oxo-8,16-diazatricyclo[13.3.1.0^2,7]nonadeca-1(19),2,4,6,15,17-hexaene-5-carboxamide, TFA salt]
Ki: 104 nM

CCOC(=O)Cc1nnc(Nc2ccc3c(c2)NC(=O)[C@H](C)CCC[C@H](N2CCC(c4c(F)ccc(Cl)c4F)=CC2=O)c2cc-3ccn2)o1 [Example 42, Ethyl 2-(5-{[(10R,14S)-14-[4-(3-chloro-2,6-difluorophenyl)-6-oxo-1,2,3,6-tetrahydropyridin-1-yl]-10-methyl-9-oxo-8,16-diazatricyclo[13.3.1.0^2,7]nonadeca-1(19),2,4,6,15,17-hexaen-5-yl]amino}-1,3,4-oxadiazol-2-yl)acetate, TFA salt]
Ki: 0.45 nM

COC(=O)Nc1ccc2c(c1)NC(=O)[C@H](C)CCC[C@H](N1CCC(c3cc(Cl)ccc3OC(F)F)=CC1=O)c1cc-2ccn1 [Example 44, Methyl N-[(10R,14S)-14-{4-[5-chloro-2-(difluoromethoxy)phenyl]-6-oxo-1,2,3,6-tetrahydropyridin-1-yl}-10-methyl-9-oxo-8,16-diazatricyclo[13.3.1.0^2,7]nonadeca-1(19),2,4,6,15,17-hexaen-5-yl]carbamate, TFA salt]
Ki: 0.13 nM

CC(=O)c1ccc(Cl)c(F)c1C1=CC(=O)N([C@H]2CCC[C@@H](C)C(=O)Nc3ccccc3-c3ccnc2c3)CC1 [Example 48, (10R,14S)-14-[4-(6-Acetyl-3-chloro-2-fluorophenyl)-6-oxo-1,2,3,6-tetrahydropyridin-1-yl]-10-methyl-8,16-diazatricyclo[13.3.1.0^2,7]nonadeca-1(19),2,4,6,15,17-hexaen-9-one, TFA salt]
Ki: 4.77 nM

C[C@@H]1CCC[C@H](N2CCC(c3c(F)ccc(Cl)c3F)=CC2=O)c2cc(ccn2)-c2ccc(NC(=O)OCCOC(C)(C)C)cc2NC1=O [Example 53, 2-(tert-Butoxy)ethyl N-[(10R,14S)-14-[4-(3-chloro-2,6-difluorophenyl)-6-oxo-1,2,3,6-tetrahydropyridin-1-yl]-10-methyl-9-oxo-8,16-diazatricyclo[13.3.1.0^2,7]nonadeca-1(19),2,4,6,15,17-hexaen-5-yl]carbamate, TFA salt]
Ki: 0.08 nM

C[C@@H]1CCC[C@H](N2CCC(c3c(F)ccc(Cl)c3F)=CC2=O)c2cc(ccn2)-c2cc(I)c(N)cc2NC1=O [Example 61, (10R,14S)-5-Amino-14-[4-(3-chloro-2,6-difluorophenyl)-6-oxo-1,2,3,6-tetrahydropyridin-1-yl]-4-iodo-10-methyl-8,16-diazatricyclo[13.3.1.0^2,7]nonadeca-1(19),2,4,6,15,17-hexaen-9-one, TFA salt]
Ki: 24.6 nM

C[C@@H]1CCC[C@H](N2CCC(c3c(C(F)(F)F)ccc(Cl)c3F)=CC2=O)c2cc(ccn2)-c2ccccc2NC1=O [Example 67, (10R,14S)-14-{4-[3-Chloro-2-fluoro-6-(trifluoromethyl)phenyl]-6-oxo-1,2,3,6-tetrahydropyridin-1-yl}-10-methyl-8,16-diazatricyclo[13.3.1.0^2,7]nonadeca-1(19),2(7),3,5,15,17-hexaen-9-one, TFA salt]
Ki: 2.98 nM

C[C@@H]1CCC[C@H](N2CCC(c3c(-n4cnnn4)ccc(Cl)c3F)=CC2=O)c2cc(ccn2)-c2ccccc2NC1=O [Example 68, (10R,14S)-14-{4-[3-Chloro-2-fluoro-6-(1H-1,2,3,4-tetrazol-1-yl)phenyl]-6-oxo-1,2,3,6-tetrahydropyridin-1-yl}-10-methyl-8,16-diazatricyclo[13.3.1.0^2,7]nonadeca-1(19),2(7),3,5,15,17-hexaen-9-one, TFA salt]
Ki: 0.05 nM

CC(=O)Nc1ccc2c(c1)NC(=O)[C@H](C)CCC[C@H](N1CCC(c3c(F)ccc(Cl)c3F)=CC1=O)c1cc-2ccn1 [Example 75, N-[(10R,14S)-14-[4-(3-Chloro-2,6-difluorophenyl)-6-oxo-1,2,3,6-tetrahydropyridin-1-yl]-10-methyl-9-oxo-8,16-diazatricyclo[13.3.1.0^2,7]nonadeca-1(19),2(7),3,5,15,17-hexaen-5-yl]acetamide, TFA salt]
Ki: 3.54 nM

C[C@@H]1CCC[C@H](N2CCC(c3c(F)ccc(Cl)c3F)=CC2=O)c2cc(ccn2)-c2ccc(NS(C)(=O)=O)cc2NC1=O [Example 76, N-[(10R,14S)-14-[4-(3-Chloro-2,6-difluorophenyl)-6-oxo-1,2,3,6-tetrahydropyridin-1-yl]-10-methyl-9-oxo-8,16-diazatricyclo[13.3.1.0^2,7]nonadeca-1(19),2(7),3,5,15,17-hexaen-5-yl]methanesulfonamide, TFA salt]
Ki: 7.89 nM

C[C@@H]1CCC[C@H](N2CCC(c3c(F)ccc(Cl)c3F)=CC2=O)c2cc(ccn2)-c2ccc(NC(=O)CC(=O)OC(C)(C)C)cc2NC1=O [Example 87, tert-Butyl 2-{[(10R,14S)-14-[4-(3-chloro-2,6-difluorophenyl)-6-oxo-1,2,3,6-tetrahydropyridin-1-yl]-10-methyl-9-oxo-8,16-diazatricyclo[13.3.1.0^2,7]nonadeca-1(19),2,4,6,15,17-hexaen-5-yl]carbamoyl}acetate, TFA salt]
Ki: 17.3 nM

C[C@@H]1CCC[C@H](n2ccc(-c3c(F)ccc(Cl)c3F)cc2=O)c2cc(ccn2)-c2ccc(N)cc2NC1=O [Example 91, (10R,14S)-5-Amino-14-[4-(3-chloro-2,6-difluorophenyl)-2-oxo-1,2-dihydropyridin-1-yl]-10-methyl-8,16-diazatricyclo[13.3.1.0^2,7]nonadeca-1(19),2,4,6,15,17-hexaen-9-one, 2 TFA salt]
Ki: 0.56 nM

C[C@@H]1CCC[C@H](n2ccc(-c3c(F)ccc(Cl)c3F)cc2=O)c2cc(ccn2)-c2ccc(Nc3ncccn3)cc2NC1=O [Example 92, (10R,14S)-14-[4-(3-Chloro-2,6-difluorophenyl)-2-oxo-1,2-dihydropyridin-1-yl]-10-methyl-5-[(pyrimidin-2-yl)amino]-8,16-diazatricyclo[13.3.1.0^2,7]nonadeca-1(19),2(7),3,5,15,17-hexaen-9-one, 2 TFA salt]
Ki: 0.56 nM

COC(=O)Nc1ccc2c(c1)NC(=O)[C@H](C)CCC[C@H](N1CCC(c3cncn3C)=CC1=O)c1cc-2ccn1 [Example 97, Methyl N-[(10R,14S)-10-methyl-14-[4-(1-methyl-1H-imidazol-5-yl)-6-oxo-1,2,3,6-tetrahydropyridin-1-yl]-9-oxo-8,16-diazatricyclo[13.3.1.0^2,7]nonadeca-1(19),2,4,6,15,17-hexaen-5-yl]carbamate, 2 TFA salt]
Ki: > 408 nM

CC(C)[C@@H]1CCC[C@H](N2CCC(c3c(-n4cnnn4)ccc(Cl)c3F)=CC2=O)c2cc(ccn2)-c2ccccc2NC1=O [Example 100, (10S,14S)-14-{4-[3-chloro-2-fluoro-6-(1H-1,2,3,4-tetrazol-1-yl)phenyl]-6-oxo-1,2,3,6-tetrahydropyridin-1-yl}-10-(propan-2-yl)-8,16-diazatricyclo[13.3.1.0^2,7]nonadeca-1(18),2,4,6,15(19),16-hexaen-9-one, TFA salt]
Ki: 0.09 nM

COC(=O)Nc1ccc2c(c1)NC(=O)[C@H](C)CCC[C@H](N1CCC(c3cncn3Cc3ccccc3)=CC1=O)c1cc-2ccn1 [Example 101, Methyl N-[(10R,14S)-14-[4-(1-benzyl-1H-imidazol-5-yl)-6-oxo-1,2,3,6-tetrahydropyridin-1-yl]-10-methyl-9-oxo-8,16-diazatricyclo[13.3.1.0^2,7]nonadeca-1(19),2,4,6,15,17-hexaen-5-yl]carbamate, bis TFA salt]
Ki: > 434 nM

C[C@@H]1CCC[C@H](N2CCC(c3c(F)ccc(Cl)c3F)=CC2=O)c2cc(ccn2)-c2ccc(Nc3nnc(-c4ccco4)o3)cc2NC1=O [Example 103, (10R,14S)-14-[4-(3-Chloro-2,6-difluorophenyl)-6-oxo-1,2,3,6-tetrahydropyridin-1-yl]-5-{[5-(furan-2-yl)-1,3,4-oxadiazol-2-yl]amino}-10-methyl-8,16-diazatricyclo[13.3.1.0^2,7]nonadeca-1(19),2(7),3,5,15,17-hexaen-9-one, TFA salt]
Ki: 6.13 nM
